Values of other authors, collected in patent US12687554B2, “Molecular profiling of tumors” (Caris MPI, Inc., priority 2006, dated 2026).
“Also recorded” adds a separate entry of the source. Like-named read-outs stand apart in the source and are kept apart here.

Tested on: differentially expressed or mutated biomarker in cancer cells
[1] = EGFR, FISH, Positive, with loss of PTEN, mutation of KRAS or BRAF per Summary
[2] = EGFR, Mutational Analysis, Mutated
[3] = EGFR, Mutational Analysis, Wild type genotype
[4] = PTEN, IHC, Above Threshold, with the other biomarker results named in the Summary
[5] = biomarker PTEN, IHC, result Above Threshold, with the other biomarker results named in the Summary
[6] = biomarker PTEN, IHC, result Negative (loss of PTEN protein expression)
[7] = KRAS, Mutational Analysis, Mutated
[8] = KRAS, Mutational Analysis, Wild type genotype
[9] = KRAS, Mutational Analysis, Wild type genotype, with loss of PTEN and/or FISH negative EGFR per Summary
[10] = biomarker EGFR, FISH, result Negative (lack of EGFR gene copy number increase)
[11] = biomarker EGFR, FISH, result Positive (high EGFR gene copy number)
[12] = biomarker EGFR, FISH, result Positive, with the other biomarker results named in the Summary
[13] = biomarker EGFR, Mutational Analysis, result Mutated
[14] = biomarker EGFR, Mutational Analysis, result Mutated, with the other biomarker results named in the Summary
[15] = biomarker EGFR, Mutational Analysis, result Wild type genotype
[16] = biomarker KRAS, Mutational Analysis, result Wild type genotype
[17] = biomarker KRAS, Mutational Analysis, result Wild type genotype, with the other biomarker results named in the Summary
[18] = biomarker KRAS, Mutational Analysis, result Mutated

CC1=C(/C=C/C(C)=C/C=C/C(C)=C/C(=O)O)C(C)(C)CCC1 [ATRA]
Recommended Agents (RARA, Microarray, Overexpressed, for use only on hematologic malignancies): ATRA

C#Cc1cccc(Nc2ncnc3cc(OCCOC)c(OCCOC)cc23)c1 [Erlotinib]
Resistant Agents (EGFR, FISH, Negative): Erlotinib | Resistant Agents [1]: Erlotinib | Recommended Agents [2]: Erlotinib | Resistant Agents [3]: Erlotinib | Recommended Agents [4]: Erlotinib; also recorded: Erlotinib, | Resistant Agents (PTEN, IHC, Negative): Erlotinib, | Resistant Agents [5]: Erlotinib | Resistant Agents [6]: Erlotinib,; also recorded: Erlotinib

COc1cc2ncnc(Nc3ccc(F)c(Cl)c3)c2cc1OCCCN1CCOCC1 [Gefitinib]
Resistant Agents (EGFR, FISH, Negative): Gefitinib | Resistant Agents [1]: Gefitinib | Recommended Agents [2]: Gefitinib | Resistant Agents [3]: Gefitinib | Recommended Agents [4]: Gefitinib; also recorded: Gefitinib, | Resistant Agents [4]: Gefitinib | Resistant Agents [5]: Gefitinib | Resistant Agents [6]: Gefitinib,; also recorded: Gefitinib

CC(=O)Oc1ccccc1C(=O)O [aspirin]
Recommended Agents (COX-2, IHC, Above Threshold): aspirin | Resistant Agents (COX-2, IHC, Negative): aspirin

CC(=O)Oc1ccccc1C(=O)O [asprin]
Recommended Agents (COX-2, Microarray, Overexpressed): asprin

C#Cc1cccc(Nc2ncnc3cc(OCCOC)c(OCCOC)cc23)c1 [erlotinib]
Resistant Agents (EGFR, FISH, Negative): erlotinib | Recommended Agents (EGFR, FISH, Positive): erlotinib | Resistant Agents [1]: erlotinib | Resistant Agents [7]: erlotinib | Recommended Agents [8]: erlotinib | Resistant Agents [9]: erlotinib | Recommended Agents [4]: erlotinib | Resistant Agents [4]: erlotinib | Resistant Agents (PTEN, IHC, Negative): erlotinib | Resistant Agents [10]: erlotinib | Recommended Agents [11]: erlotinib | Resistant Agents [12]: erlotinib | Recommended Agents [13]: erlotinib | Resistant Agents [14]: erlotinib | Resistant Agents [15]: erlotinib | Recommended Agents [16]: erlotinib | Resistant Agents [17]: erlotinib | Resistant Agents [5]: erlotinib | Resistant Agents [6]: erlotinib,

COc1cc2ncnc(Nc3ccc(F)c(Cl)c3)c2cc1OCCCN1CCOCC1 [gefitinib]
Recommended Agents (EGFR, FISH, Positive): gefitinib | Resistant Agents [1]: gefitinib | Resistant Agents [7]: gefitinib | Recommended Agents [8]: gefitinib | Resistant Agents [9]: gefitinib | Recommended Agents [4]: gefitinib | Resistant Agents [4]: gefitinib | Resistant Agents (PTEN, IHC, Negative): gefitinib | Resistant Agents [10]: gefitinib | Recommended Agents [11]: gefitinib | Resistant Agents [12]: gefitinib | Recommended Agents [13]: gefitinib | Resistant Agents [14]: gefitinib | Resistant Agents [15]: gefitinib | Resistant Agents [18]: gefitinib | Recommended Agents [16]: gefitinib | Resistant Agents [17]: gefitinib | Recommended Agents (biomarker PTEN, IHC, result Above Threshold): gefitinib | Resistant Agents [5]: gefitinib

Cc1ccc(NC(=O)c2ccc(CN3CCN(C)CC3)cc2)cc1Nc1nccc(-c2cccnc2)n1 [imatinib]
Recommended Agents (c-kit, Mutational Analysis, Mutated, mutations in exon 9): imatinib | Resistant Agents (c-kit, Mutational Analysis, Mutated, mutations in exon 11): imatinib | Recommended Agents (c-kit, Mutational Analysis, Wild type genotype): imatinib

CS(=O)(=O)CCNCc1ccc(-c2ccc3ncnc(Nc4ccc(OCc5cccc(F)c5)c(Cl)c4)c3c2)o1 [lapatinib]
Recommended Agents (Her2/Neu, FISH, Amplified): lapatinib | Resistant Agents (Her2/Neu, FISH, Not Amplified): lapatinib | Recommended Agents (Her2/Neu, IHC, Above Threshold): lapatinib | Resistant Agents (Her2/Neu, IHC, Negative): lapatinib | Resistant Agents [4]: lapatinib | Resistant Agents (PTEN, IHC, Negative): lapatinib

Panitumumab
Resistant Agents [1]: Panitumumab, | Recommended Agents [4]: Panitumumab, | Resistant Agents [5]: Panitumumab, | Resistant Agents [6]: Panitumumab,

panitumumab
Resistant Agents (BRAF, Mutational Analysis, Mutated): panitumumab | Recommended Agents (BRAF, Mutational Analysis, Wild type genotype): panitumumab | Resistant Agents (BRAF, Mutational Analysis, Wild type genotype, with loss of PTEN and/or FISH negative EGFR per Summary): panitumumab | Resistant Agents [1]: panitumumab, | Resistant Agents [7]: panitumumab, | Recommended Agents [8]: panitumumab, | Resistant Agents [9]: panitumumab, | Recommended Agents [4]: panitumumab,; also recorded: panitumumab | Resistant Agents [4]: panitumumab, | Resistant Agents (PTEN, IHC, Negative): panitumumab, | Resistant Agents (biomarker BRAF, Mutational Analysis, result Mutated): panitumumab | Resistant Agents (biomarker BRAF, Mutational Analysis, result Wild type genotype, with the other biomarker results named in the Summary): panitumumab | Resistant Agents [10]: panitumumab, | Resistant Agents [12]: panitumumab, | Resistant Agents [18]: panitumumab, | Resistant Agents [17]: panitumumab, | Resistant Agents [5]: panitumumab, | Resistant Agents [6]: panitumumab,
